From patent US20130217646A1, “COMBINATION OF ALOVUDINE AND ZIDOVUDINE IN A MOLAR RATIO OF 1:100 TO 1:350” (MEDIVIR AB, priority 2006, published 2013)
Read-outs that look alike come from different tables or passages of the source. Blank lines part the entries; values can stand above or below the molecule they belong to.

Test system: MT4 cell line
Conditions: human, 14 days
Method: Several suitable cell lines supporting HIV growth are readily available including lines include those supporting HIV growth including the CEM×174 cell line derived from Swedish Institute for Infectious Disease Control (SMI) Sweden, MT-4 (commercially available) and Hep G2 (commercially available).
In short, 100 ul cells are seeded in a 96-well plate at a concentration of 1×10^4 cells/ml, at exponential growth were cultured in RPMI 1640 medium (from Gibco) supplemented with 10% heat-inactivated fetal bovine serum (from Gibco) and Penicillin-Streptomycin (from Gibco). The medium is changed every 3 or 4 days, and cells are subcultured once a week at a dilution of 1:10. All cultures are routinely checked for Mycoplasma infection and grown at 37° C. in a humidified 5% CO2 atmosphere.
All drugs tested were first dissolved at 10 mM in dimethyl sulfoxide (DMSO) before further dilution to the appropriate concentration in the culture medium. The analysis of mitochondrial DNA was performed by using Taqman technology as previously reported (Zhang, H et al. Mol. Pharmacol 1994 46:1063-1069), with modifications, and is briefly described below.
The cells are treated for a series of durations with the test drugs, such as alovudine, fosalvudine, zidovudine, abacavir etc or various combinations of alovudine/fosalvudine and zidovudine/abacavir. The various ratios indicated in the respective Tables. After 14 days of drug exposure, cells are collected. Total cellular DNA was prepared using the QiAamp DNA blood Mini kit (QIAGEN, Chatsworth, Calif.), following the supplier's instructions for the Qiagene Blood&Body Fluid Spin Protocol, and subject to DNA amplification.
The probes of mitochondrial DNA Taqman and human nuclear DNA were prepared from Applied Biosystems, which employs an internal quenched DNA probe utilizing fluorescence resonance energy transfer (FRET) to generate a spectroscopic response due to 5′->3′ exonuclease activity of Taq DNA polymerase during DNA amplification. […] It is a fully integrated system for real-time detection of PCR using ABI PRISM 7700 and TaqMan reagents for the fluorogenic 5′ nuclease assay.
The cell growth was controlled by cellular nuclear DNA ([…] ribosomal DNA).
The above described assay was performed in the MT4 cell line derived from a T lymphocyte.

% Reduction mt/n DNA (0.1 uM): 13%
% reduction mt DNA (0.1 uM): 44%
% reduction n DNA (0.1 uM): 35%
Inhibition of mitochondrial DNA % (0.1 uM): 70%
Inhibition of mitochondrial DNA, % (0.1 uM): 40%
Ratio Mitochondrial: Nuclear DNA (0.1 uM): 0.45
Relative no. copies mt DNA (0.1 uM): 434709
Relative no. copies n DNA (0.1 uM): 956331
Inhibition of mitochondrial DNA, % (0.2 uM): 82%
% Reduction mt/n DNA (0.3 uM): 59%
% reduction mt DNA (0.3 uM): 68%
% reduction n DNA (0.3 uM): 22%
Inhibition of mitochondrial DNA % (0.3 uM): 95%
Ratio Mitochondrial: Nuclear DNA (0.3 uM): 0.21
Relative no. copies mt DNA (0.3 uM): 247481
Relative no. copies n DNA (0.3 uM): 1160000
% Reduction mt/n DNA (0.6 uM): 89%
% reduction mt DNA (0.6 uM): 88%
% reduction n DNA (0.6 uM): 0%
Ratio Mitochondrial: Nuclear DNA (0.6 uM): 0.06
Relative no. copies mt DNA (0.6 uM): 96998
Relative no. copies n DNA (0.6 uM): 1740000
Inhibition of mitochondrial DNA % (1 uM): 100%
Structure (SMILES): Cc1cn([C@H]2C[C@H](F)[C@@H](CO)O2)c(=O)[nH]c1=O [alovudine, 2′,3′-dideoxy-3′-fluorothymidine]
Mean qty mt DNA (0.1 uM): 549900
Mean qty mt DNA (0.2 uM): 187574

Inhibition of mitochondrial DNA % (1 uM): 0%
Inhibition of mitochondrial DNA % (3 uM): 0%
% Reduction mt/n DNA (10 uM): 0%
% reduction mt DNA (10 uM): 0%
% reduction n DNA (10 uM): 40%
Inhibition of mitochondrial DNA % (10 uM): 0%
Ratio Mitochondrial: Nuclear DNA (10 uM): 0.96
Relative no. copies mt DNA (10 uM): 856782
Relative no. copies n DNA (10 uM): 891446
% Reduction mt/n DNA (30 uM): 0%
% reduction mt DNA (30 uM): 0%
% reduction n DNA (30 uM): 43%
Inhibition of mitochondrial DNA, % (30 uM): 0%
Ratio Mitochondrial: Nuclear DNA (30 uM): 1.19
Relative no. copies mt DNA (30 uM): 993321
Relative no. copies n DNA (30 uM): 836935
% Reduction mt/n DNA (60 uM): 0%
% reduction mt DNA (60 uM): 4%
% reduction n DNA (60 uM): 40%
Ratio Mitochondrial: Nuclear DNA (60 uM): 0.84
Relative no. copies mt DNA (60 uM): 748730
Relative no. copies n DNA (60 uM): 890663
Structure (SMILES): Cc1cn([C@H]2C[C@H](N=[N+]=[N-])[C@@H](CO)O2)c(=O)[nH]c1=O [zidovudine, 2′3′-dideoxy-3′-azido-thymidine]
Mean qty (mitochondrial DNA) (30 uM): 1410000

Inhibition of mitochondrial DNA, % (1 uM): 18%
Inhibition of mitochondrial DNA, % (20 uM): 51%
Structure (SMILES): Nc1nc(NC2CC2)c2ncn([C@H]3C=C[C@@H](CO)C3)c2n1 [abacavir]
Mean qty mt DNA (1 uM): 756544
Mean qty mt DNA (20 uM): 506181
